Measured values as given in US12479839B2, “Crystalline form of ATR inhibitor and use thereof” (Wuxi Biocity Biopharmaceutics Co., Ltd., priority 2019, dated 2025).
Values belong to the compound of their own block, whether it stands above or below them.

Experiments:
[1] = In vivo pharmacokinetic study in female Balb/c Nude mice; parameters: species or system mouse
Method: Experimental procedure: The purpose of this study is to determine the pharmacokinetic parameters of the compound and calculate its gavage bioavailability in female Balb/c Nude mice.
Six female Balb/c Nude mice were used in this project, three mice were injected intravenously, with the dosage of 1 mg/kg, where plasma samples at 0 h (before administration) and at 0.0833, 0.25, 0.5, 1, 2, 4, 6, 8 and 24 h after administration were collected, and the other three mice were administered intragastrically with the dose of 10 mg/kg or 25 mg/kg, where plasma samples at 0 h (before administration) and at 0.5, 1, 2, 3, 4, 6, 8, 24 h after administration were collected. LC-MS/MS analysis was performed on the collected samples and data were collected. The collected analysis data were calculated with Phoenix WinNonlin 6.2.1 software for relevant pharmacokinetic parameters.
Note: C0 (nM) is the concentration of the drug in the body at 0 min; Cl (mL/min/kg) is the clearance rate of the drug in the body; Vdss (L/kg) is the volume of distribution of the drug in the body; T1/2 (h) is the half-life; AUC0-t (nM·h) is the amount of drug exposure in the body; Cmax (nM) is the highest concentration of the drug in the body; F is the bioavailability.

[2] = Solid physical stability tests of Crystal Form A under different temperature, humidity and light conditions; format: physicochemical; settings: Day 10, XRPD
Method: Four samples of Crystal Form A were weighed in parallel, each about 100 mg, placed on the bottom of a glass sample bottle and spread into a thin layer. The samples were sealed with aluminum foil paper, and some small holes were pierced in the aluminum foil paper to ensure that the sample can fully contact with the ambient air. Four prepared samples were placed in 25° C./92.5% relative humidity, 60° C., 40° C./75% and light conditions, respectively, and the physical stability of the samples on the 10th day was investigated. At the same time, a sample of about 100 mg of Crystal Form A was weighed separately, placed on the bottom of the glass sample bottle, sealed with a screw cap, and stored at −20° C. for use as control. On the 10th day, all the samples were taken out, returned to room temperature, and the appearance changes of the samples were observed. XRPD was used to detect the sample crystal forms. By comparing the accelerated samples with the control sample, the solid physical stability of Crystal Form A of the compound of formula (I) was determined.

[3] = Solid stability test of Crystal Form A under high temperature and high humidity; format: physicochemical; settings: 40° C./75% humidity
Method: Two samples of Crystal Form A were weighed in parallel, each about 100 mg, placed on the bottom of a glass sample bottle and spread into a thin layer. The samples were sealed with aluminum foil paper, and some small holes were pierced in the aluminum foil paper to ensure that the sample can fully contact with the ambient air. The samples were placed at a constant temperature and humidity box under the condition of 40° C./75% humidity. The samples under the above conditions were sampled and tested on day 30, and the test results were compared with the initial test result on day 0.

[4] = Solid stability tests of Crystal Form B under high temperature, high humidity and light conditions; format: physicochemical
From the text: The samples were sealed with aluminum foil paper, and some small holes were pierced in the aluminum foil paper to ensure that the sample can fully contact with the ambient air. The samples were placed in a constant temperature and humidity or light box under different humidity conditions. […] The test results were compared with the initial test results on day 0.

F ([1]; 10 mg/kg intragastric): 129.0% | AUC ([1]; mouse, plasma, 1 mg/kg IV, read-out: AUC04): 1.09 µM·h
SMILES: Cc1cnn(C)c1-c1cc(N2CCOC[C@H]2C)nc(-c2cc(CO)cc3[nH]ccc23)n1 [Compound of formula (1)]

Crystal Form ([2]; 25° C./92.5% relative humidity (open)): Form A | Crystal Form ([2]; 40° C./75% relative humidity (open)): Form A | Crystal Form ([2]; 60° C. (open)): Form A | Crystal Form ([2]; light): Form A | Crystal Form ([2]; −20° C. sealed (control)): Form A | Appearance ([3]; day 0): White | Content ([3]; day 0): 99.61% | Crystal Form ([3]; day 0): Form A | Total impurity ([3]; day 0): 0.39% | Appearance ([3]; day 30): White | Content ([3]; day 30): 99.59% | Crystal Form ([3]; day 30): Form A | Total impurity ([3]; day 30): 0.45%
SMILES: Cc1cnn(C)c1-c1cc(N2CCOC[C@H]2C)nc(-c2cc(CO)cc3[nH]ccc23)n1 [Crystal Form A]

Content ([4]; 25° C./65% RH, 3 month): 98.4% | Crystal Form ([4]; 25° C./65% RH, 3 month): Crystal Form B | Total impurity ([4]; 25° C./65% RH, 3 month): 0.45% | Content ([4]; 25° C./65% RH, 6 month): 99.8% | Crystal Form ([4]; 25° C./65% RH, 6 month): Crystal Form B | Total impurity ([4]; 25° C./65% RH, 6 month): 0.43% | Content ([4]; 25° C./65% RH, day 0): 99.0% | Crystal Form ([4]; 25° C./65% RH, day 0): Crystal Form B | Total impurity ([4]; 25° C./65% RH, day 0): 0.42% | Content ([4]; 25° C./92.5% RH, day 0): 99.0% | Crystal Form ([4]; 25° C./92.5% RH, day 0): Crystal Form B | Total impurity ([4]; 25° C./92.5% RH, day 0): 0.42% | Content ([4]; 25° C./92.5% RH, day 5): 98.9% | Crystal Form ([4]; 25° C./92.5% RH, day 5): Crystal Form B | Total impurity ([4]; 25° C./92.5% RH, day 5): 0.44% | Content ([4]; 25° C./92.5% RH, day 10): 100.1% | Crystal Form ([4]; 25° C./92.5% RH, day 10): Crystal Form B | Total impurity ([4]; 25° C./92.5% RH, day 10): 0.41% | Content ([4]; 25° C./92.5% RH, day 30): 99.7% | Crystal Form ([4]; 25° C./92.5% RH, day 30): Crystal Form B | Total impurity ([4]; 25° C./92.5% RH, day 30): 0.41% | Content ([4]; 40° C./75% RH, 1 month): 100.6% | Crystal Form ([4]; 40° C./75% RH, 1 month): Crystal Form B | Total impurity ([4]; 40° C./75% RH, 1 month): 0.45% | Content ([4]; 40° C./75% RH, 2 month): 100.4% | Crystal Form ([4]; 40° C./75% RH, 2 month): Crystal Form B | Total impurity ([4]; 40° C./75% RH, 2 month): 0.42% | Content ([4]; 40° C./75% RH, 3 month): 98.8% | Crystal Form ([4]; 40° C./75% RH, 3 month): Crystal Form B | Total impurity ([4]; 40° C./75% RH, 3 month): 0.44% | Content ([4]; 40° C./75% RH, 6 month): 99.8% | Crystal Form ([4]; 40° C./75% RH, 6 month): Crystal Form B | Total impurity ([4]; 40° C./75% RH, 6 month): 0.43% | Content ([4]; 40° C./75% RH, day 0): 99.0% | Crystal Form ([4]; 40° C./75% RH, day 0): Crystal Form B | Total impurity ([4]; 40° C./75% RH, day 0): 0.42% | Content ([4]; 60° C., day 0): 99.0% | Crystal Form ([4]; 60° C., day 0): Crystal Form B | Total impurity ([4]; 60° C., day 0): 0.42% | Content ([4]; 60° C., day 5): 101.5% | Crystal Form ([4]; 60° C., day 5): Crystal Form B | Total impurity ([4]; 60° C., day 5): 0.43% | Content ([4]; 60° C., day 10): 101.6% | Crystal Form ([4]; 60° C., day 10): Crystal Form B | Total impurity ([4]; 60° C., day 10): 0.39% | Content ([4]; 60° C., day 30): 99.4% | Crystal Form ([4]; 60° C., day 30): Crystal Form B | Total impurity ([4]; 60° C., day 30): 0.41% | Content ([4]; light, day 0): 99.0% | Crystal Form ([4]; light, day 0): Crystal Form B | Total impurity ([4]; light, day 0): 0.42% | Content ([4]; light, day 5): 101.0% | Crystal Form ([4]; light, day 5): Crystal Form B | Total impurity ([4]; light, day 5): 0.44% | Content ([4]; light, day 10): 100.7% | Crystal Form ([4]; light, day 10): Crystal Form B | Total impurity ([4]; light, day 10): 0.42%
SMILES: Cc1cnn(C)c1-c1cc(N2CCOC[C@H]2C)nc(-c2cc(CO)cc3[nH]ccc23)n1 [Crystal Form B]
